Experimental data taken from ChEMBL document CHEMBL1201862, “PubChem BioAssay data set” (2004).
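Exposure lasted 48 hours, with cells grown in 96-well plates and compounds tested at five concentrations. GI50: concentration for 50% inhibition of growth.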 Calls of active or inactive are those of the source. No stated cut-off is given here; in the data, active = GI50 up to about 1.1 µM and inactive = higher.

How the values were obtained:
Assay in all cases: DTP human tumour cell line panel, 48 h
HOP-62 = system: HOP-62
ACHN = system: ACHN
OVCAR-8 = system: OVCAR-8
SF-539 = system: SF-539
OVCAR-5 = system: OVCAR-5
T47D = system: T47D
UACC-62 = system: UACC-62
786-0 = system: 786-0
RPMI-8226 = system: RPMI-8226
SK-OV-3 = system: SK-OV-3
MCF7 = system: MCF7
Hs-578T = system: Hs-578T
RXF 393 = system: RXF 393
HT-29 = system: HT-29
SW-620 = system: SW-620
K562 = system: K562
MDA-N = system: MDA-N
CCRF-CEM = system: CCRF-CEM
UO-31 = system: UO-31
KM12 = system: KM12
SR = system: SR
SNB-19 = system: SNB-19
NCI-H522 = system: NCI-H522
MDA-MB-231 = system: MDA-MB-231
MDA-MB-435 = system: MDA-MB-435
DU-145 = system: DU-145
NCI-H226 = system: NCI-H226
HCT-116 = system: HCT-116
HL-60 = system: HL-60
HOP-92 = system: HOP-92
SF-268 = system: SF-268
SK-MEL-28 = system: SK-MEL-28
HCC 2998 = system: HCC 2998
COLO 205 = system: COLO 205
OVCAR-3 = system: OVCAR-3
BT-549 = system: BT-549
NCI/ADR-RES = system: NCI/ADR-RES
U-251 = system: U-251
UACC-257 = system: UACC-257
SK-MEL-2 = system: SK-MEL-2
HCT-15 = system: HCT-15
IGROV-1 = system: IGROV-1
TK-10 = system: TK-10
PC-3 = system: PC-3
SN12C = system: SN12C
NCI-H460 = system: NCI-H460
OVCAR-4 = system: OVCAR-4
CAKI-1 = system: CAKI-1
EKVX = system: EKVX
MOLT-4 = system: MOLT-4
LOX IMVI = system: LOX IMVI
NCI-H23 = system: NCI-H23
M14 = system: M14
SK-MEL-5 = system: SK-MEL-5
A549 = system: A549
SF-295 = system: SF-295
SNB-75 = system: SNB-75

Measured: GI50

Cc1ccc(O)c(C(=O)/C=C/c2ccccc2)c1
> 100 µM: HCT-15
inactive: HOP-62 > 100 µM | ACHN > 100 µM | OVCAR-8 > 100 µM | SF-539 > 100 µM | OVCAR-5 > 100 µM | T47D > 100 µM | UACC-62 > 100 µM | 786-0 > 100 µM | RPMI-8226 > 100 µM | SK-OV-3 > 100 µM | MCF7 > 100 µM | Hs-578T 78 µM | RXF 393 > 100 µM | HT-29 > 100 µM | SW-620 > 100 µM | K562 > 100 µM | MDA-N > 100 µM | CCRF-CEM > 100 µM | UO-31 > 100 µM | KM12 1.37 µM | SR > 100 µM | SNB-19 > 100 µM | NCI-H522 5.81 µM | MDA-MB-231 > 100 µM | MDA-MB-435 > 100 µM | DU-145 > 100 µM | NCI-H226 > 100 µM | HCT-116 > 100 µM | HL-60 23.1 µM | HOP-92 > 100 µM | SF-268 > 100 µM | SK-MEL-28 > 100 µM | HCC 2998 > 100 µM | COLO 205 > 100 µM | OVCAR-3 > 100 µM | BT-549 > 100 µM | NCI/ADR-RES 53.5 µM | U-251 > 100 µM | UACC-257 > 100 µM | SK-MEL-2 > 100 µM | IGROV-1 > 100 µM | TK-10 > 100 µM | PC-3 > 100 µM | SN12C > 100 µM | NCI-H460 > 100 µM | OVCAR-4 78.9 µM | CAKI-1 > 100 µM | EKVX > 100 µM | MOLT-4 9.93 µM | LOX IMVI > 100 µM | NCI-H23 > 100 µM | M14 > 100 µM | SK-MEL-5 > 100 µM | A549 > 100 µM | SF-295 > 100 µM | SNB-75 49 µM

NC(Cc1ccccc1CP(=O)(O)O)C(=O)O (stereo unspecified)
> 100 µM: HCT-15
inactive: ACHN > 100 µM | OVCAR-8 > 100 µM | SF-539 > 100 µM | OVCAR-5 > 100 µM | T47D 35.9 µM | UACC-62 53 µM | RPMI-8226 > 100 µM | SK-OV-3 > 100 µM | MCF7 > 100 µM | Hs-578T > 100 µM | RXF 393 > 100 µM | HT-29 > 100 µM | SW-620 > 100 µM | K562 > 100 µM | MDA-N > 100 µM | CCRF-CEM > 100 µM | UO-31 > 100 µM | KM12 > 100 µM | SR > 100 µM | SNB-19 > 100 µM | NCI-H522 > 100 µM | MDA-MB-231 > 100 µM | MDA-MB-435 > 100 µM | DU-145 > 100 µM | HCT-116 > 100 µM | HL-60 > 100 µM | HOP-92 > 100 µM | SF-268 > 100 µM | SK-MEL-28 > 100 µM | HCC 2998 > 100 µM | COLO 205 > 100 µM | OVCAR-3 > 100 µM | BT-549 > 100 µM | NCI/ADR-RES > 100 µM | U-251 > 100 µM | UACC-257 > 100 µM | SK-MEL-2 > 100 µM | IGROV-1 > 100 µM | TK-10 > 100 µM | PC-3 > 100 µM | SN12C > 100 µM | NCI-H460 > 100 µM | OVCAR-4 > 100 µM | CAKI-1 > 100 µM | EKVX > 100 µM | MOLT-4 > 100 µM | LOX IMVI > 100 µM | NCI-H23 > 100 µM | M14 > 100 µM | SK-MEL-5 > 100 µM | A549 > 100 µM | SF-295 > 100 µM | SNB-75 > 100 µM
